Reference: patent US6350776B1, “Method of treating proliferative disease with lycopene and alpha-tocopherol” (priority 1999, dated 2002)

What was measured:
[1] = test system: prostate carcinoma cell proliferation; conditions: in vitro studies, background; cited from earlier work
[2] = test system: Prostate cancer cells (DU-145); assay: Cell proliferation assay (cell count), DU-145; format: cell-based, human; conditions: for potentiation of the anti-proliferative effect of lycopene: DU-145, 50 μM of the compound with 1 μM lycopene (FIG. 3)
Experimental: (§1) Culture media and antibiotics were from Gibco (Grand Island, N.Y., USA). Fetal calf serum was from PAA Labor (Linz, Austria), Human prostate carcinoma, androgen insensitive, cell lines DU-145 and PC-3, colon carcinoma cell line Caco-2, hepatoma cell line HepG2, and rat aortic smooth muscle cell line A7r5 were from American Type Culture Collection (Rockville, Md., USA). DU-146 cells were grown in minimum essential medium (EM), PC-3 cells in F-12K medium, both containing antibiotics and 10% fetal calf serum (FCS). Caco-2 cells were grown in MEM containing 20% FCS. HepG2 cells were grown in MEM containing 10% FCS, and A7r5 cells were grown in DMEM containing 10% FCS. Cell proliferation was assayed using two methods, cell count and thymidine incorporation: Cell count. Cells were seeded into 6-multiwell plates (20,000 cells/well). When cells reached approximately 50% confluence, the indicated concentrations of the compounds were added. THF was added to control cells to account for the effect of the solvent in the compound solutions. Cells were washed, trypsinized, resuspended and counted in duplicate at the indicated times by trypan blue dye exclusion with a hemocytometer. […] The values in Table 1 are expressed as percent of inhibition of proliferation as compared to proliferation of control cells treated with solvent alone. Prostate cancer cells (DU-145), hepatoma cells (HepG2), colon carcinoma cells (Caco-2) and rat aortic smooth muscle cells (A7r5) were treated with different concentrations of lycopene as indicated and 50 μM alpha-tocopherol for 24 hours. […] Proliferation was assessed as indicated in the Materials and Methods. Data are means±SD of five experiments in duplicate.

[3] = test system: colon carcinoma cells (Caco-2); assay: Cell proliferation assay (thymidine incorporation), Caco-2; format: cell-based, human; conditions: 50 μM alpha-tocopherol, lycopene 0 μM, 24 hours, vs solvent control
Experimental: (§2) Culture media and antibiotics were from Gibco (Grand Island, N.Y., USA). Fetal calf serum was from PAA Labor (Linz, Austria), Human prostate carcinoma, androgen insensitive, cell lines DU-145 and PC-3, colon carcinoma cell line Caco-2, hepatoma cell line HepG2, and rat aortic smooth muscle cell line A7r5 were from American Type Culture Collection (Rockville, Md., USA). DU-146 cells were grown in minimum essential medium (EM), PC-3 cells in F-12K medium, both containing antibiotics and 10% fetal calf serum (FCS). Caco-2 cells were grown in MEM containing 20% FCS. HepG2 cells were grown in MEM containing 10% FCS, and A7r5 cells were grown in DMEM containing 10% FCS.
(§3) Cell proliferation was assayed using two methods, cell count and thymidine incorporation:
(§4) Thymidine incorporation. Colon carcinoma cells (Caco-2) and hepatoma cells (HepG2) seeded into 6 multiwell plates (30,000 cells/well) after treatment were pulsed with [^3H] thymidine (0.5 μCi per well) for two hours. […] The radioactivity incorporated into the acid-insoluble material was determined in a liquid scintillation analyzer.
(§5) The values in Table 1 are expressed as percent of inhibition of proliferation as compared to proliferation of control cells treated with solvent alone. […] Proliferation was assessed as indicated in the Materials and Methods. […]

hepatoma cells (HepG2) = assay: Cell proliferation assay (thymidine incorporation), HepG2; format: cell-based, human; conditions: 50 μM alpha-tocopherol, lycopene 0 μM, 24 hours, vs solvent control
Experimental: as §2, §3, §4, §5

[4] = test system: rat aortic smooth muscle cells (A7r5); assay: Cell proliferation assay (cell count), A7r5; format: cell-based; conditions: 50 μM alpha-tocopherol, lycopene 0 μM, 24 hours, vs solvent control
Experimental: as §1, with “alone.” for “alone. Prostate cancer cells (DU-145), hepatoma cells (HepG2), colon carcinoma cells (Caco-2) and rat aortic smooth muscle cells (A7r5) were treated with different concentrations of lycopene as indicated and 50 μM alpha-tocopherol for 24 hours.”, “Data are means±SD of five experiments in duplicate.” left out

CC(C)=CCC/C(C)=C/C=C/C(C)=C/C=C/C(C)=C/C=C/C=C(C)/C=C/C=C(C)/C=C/C=C(\C)CCC=C(C)C [lycopene]
concentrations with inhibitory effect on prostate carcinoma cell proliferation [1]: ≥ 50 µM

CC(C)(Sc1cc(C(C)(C)C)c(O)c(C(C)(C)C)c1)Sc1cc(C(C)(C)C)c(O)c(C(C)(C)C)c1 [probucol]
potentiation of the anti-proliferative effect of lycopene [2]: this effect is specific to alpha-tocopherol as compared to other anti-oxidants

Cc1c(C)c2c(c(C)c1O)CCC(C)(CCCC(C)CCCC(C)CCCC(C)C)O2 (racemic) [Alpha-Tocopherol, DL-alpha-tocopherol]
percent of inhibition of proliferation [3]: 25 ± 3% | percent of inhibition of proliferation ([2]; DU 145, 50 μM alpha-tocopherol, lycopene 0 μM, 24 hours, vs solvent control): 40 ± 6% | potentiation of the anti-proliferative effect of lycopene [2]: potentiates the anti-proliferative effect of lycopene | percent of inhibition of proliferation (hepatoma cells (HepG2)): 5 ± 1% | percent of inhibition of proliferation [4]: 40 ± 5%

Cc1cc(O)c(C)c2c1O[C@](C)(CCC[C@H](C)CCC[C@H](C)CCCC(C)C)CC2 (racemic) [β-tocopherol, DL-β-tocopherol]
potentiation of the anti-proliferative effect of lycopene [2]: this effect is specific to alpha-tocopherol as compared to other anti-oxidants

O=C1O[C@H]([C@@H](O)CO)C(O)=C1O [ascorbic acid, L-ascorbic acid]
potentiation of the anti-proliferative effect of lycopene [2]: this effect is specific to alpha-tocopherol as compared to other anti-oxidants
